Each molecule was assayed against T1, human recombinant Yes [a.a. 2–543 (end)] (Homo sapiens, UniProt P07947) (assay: ADP-Glo kinase assay, inhibition rates of Yes phosphorylation activity (first and second screening)). Settings: first screening; mean of n = 4 wells; 10 μmol L−1 compound.
T1 construct: human recombinant Yes [a.a; 2–543 (end)]; purchased BPS Bioscience 40488
Type: biochemical
Method: All inhibitory assays of the phosphorylation activity of Yes were performed in accordance with the Promega Technical Manual for the ADP-Glo™ Kinase Assay (Fitchburg, WI, USA. Catalog number: V9102). The human recombinant Yes [a.a. 2–543 (end)] was purchased from BPS Bioscience (catalog number: 40488). The details of the assay protocol and reagent information are given elsewhere.
The screening was conducted in three steps consisting of the first screening, the second screening, and the IC50 determination, as can be illustrated in Fig. 1b. First, we determined the inhibition rates of the 1,991 compounds. Each compound was placed in 4 wells of a 384-well plate. In total, 80 compounds were assayed on one plate and the other wells were used for positive and negative controls. The compounds were randomly placed on plates so that compounds proposed by one group were not placed on a plate together. A mean of four inhibition rates for each compound was compared to criteria for the first screening. […] Second, the inhibition rates of the screened compounds were determined on one plate using the same procedure of the first screening, where compounds were dissolved from fresh powder. […] Screened compounds were then evaluated for their IC50 values.

T1 sequence (P07947 2-543): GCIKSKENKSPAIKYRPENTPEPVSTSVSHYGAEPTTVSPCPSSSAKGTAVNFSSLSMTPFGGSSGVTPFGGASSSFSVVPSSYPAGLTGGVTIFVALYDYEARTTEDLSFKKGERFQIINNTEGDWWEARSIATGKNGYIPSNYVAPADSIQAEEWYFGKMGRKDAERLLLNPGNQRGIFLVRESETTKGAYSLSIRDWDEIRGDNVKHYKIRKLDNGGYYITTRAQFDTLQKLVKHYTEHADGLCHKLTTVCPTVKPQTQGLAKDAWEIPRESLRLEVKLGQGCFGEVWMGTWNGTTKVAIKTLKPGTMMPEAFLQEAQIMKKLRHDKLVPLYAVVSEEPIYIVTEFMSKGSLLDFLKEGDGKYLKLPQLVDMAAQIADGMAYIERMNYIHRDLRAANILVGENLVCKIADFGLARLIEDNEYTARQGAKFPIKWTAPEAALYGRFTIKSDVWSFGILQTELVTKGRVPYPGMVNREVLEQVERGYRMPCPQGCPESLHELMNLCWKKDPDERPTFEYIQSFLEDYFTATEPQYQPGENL

First screening IR (inhibition rate)	SMILES
23%	CN(Cc1ccc(OC(F)F)cc1)C(=O)CN1C(=O)NC(C)(c2ccccc2Br)C1=O (stereo not shown) [Compound Z14158957]
16%	CCC1(c2ccc(F)cc2)NC(=O)N(CC(=O)Nc2ccc(C(=O)N(C)C)cc2)C1=O (stereo not shown) [Compound Z14224841]
20%	Cc1cc(C)n(-c2ccc(Cl)c(C(=O)OCC(=O)c3ccc(F)c(F)c3)n2)n1 [Compound Z15431588]
30%	COc1ccc(/C=C2/CC(C)Cc3c2nc2ccccc2c3C(=O)OCC(N)=O)cc1 (stereo not shown) [Compound Z15674725]
-17%	C/C(N)=C(\C#N)C(=O)CSc1nnc(-c2ccccc2F)n1Cc1ccccc1 [Compound Z15780020]
-1%	COc1ccc(Nc2nc(COC(=O)CNS(=O)(=O)c3ccc(C)c(C)c3)cs2)cc1 [Compound Z16158532]
6%	O=C(CN1C(=O)NC(Cc2c[nH]c3ccccc23)C1=O)Nc1ccc(-c2ccccc2)cc1 (stereo not shown) [Compound Z16202306]
-3%	CCOc1cc(N2CCOCC2)c(OCC)cc1NC(=O)CSc1nnc(-c2ccc3c(c2)OCO3)n1-c1ccccc1 [Compound Z16253844]
6%	Cc1cc(C(=O)CSc2nnc(-c3ccc4c(c3)OCO4)n2-c2ccccc2)c(C)n1C [Compound Z16254213]
7%	O=C(CSc1nnc(-c2ccc3c(c2)OCO3)n1-c1ccccc1)c1ccc[nH]1 [Compound Z16254229]
4%	Cc1cccc(C(C)C)c1NC(=O)CSc1nc2ccc(Cl)cc2[nH]1 [Compound Z16257955]
-8%	Cc1noc(C)c1CSc1ncnc2sc3c(c12)CCC(C)C3 (stereo not shown) [Compound Z16316201]
-1%	NS(=O)(=O)c1ccc(CCNC(=O)CSc2nnc(-c3ccccc3F)n2CCc2ccccc2)cc1 [Compound Z16426742]
-9%	O=C(CSc1nnc(-c2ccccc2F)n1CCc1ccccc1)c1ccc[nH]1 [Compound Z16427126]
0%	O=C(OCCOc1ccccc1Cl)c1cn2ccccc2n1 [Compound Z16593263]
-13%	Cc1ccc(SCC(=O)OCC(=O)Nc2ccc3[nH]c(=O)[nH]c3c2)cc1C [Compound Z16616292]
-5%	Cc1cccc(C(C)C)c1NC(=O)CSc1nc2ccc(Cl)cc2c(=O)n1CC(C)C [Compound Z16658902]
29%	C=CCN1C(=O)c2ccc(C(=O)OCc3cn4ccccc4n3)cc2C1=O [Compound Z16715300]
4%	Cc1noc(C)c1COC(=O)c1ccc2[nH]c(C)c(C)c2c1 [Compound Z17094388]
1%	COc1ccccc1NC(=O)c1ccc(NC(=O)COc2ccc(C3SCCS3)cc2)cc1 [Compound Z17289317]
0%	Fc1ccccc1-c1nc(SCc2cn3ccccc3n2)n[nH]1 [Compound Z17356722]
-35%	COCCCn1c(=O)c2ccccc2n2c(SCc3cn4ccccc4n3)nnc12 [Compound Z17893104]

First screening IR (inhibition rate)	SMILES
-5%	CCCCCn1c(=O)c2ccccc2n2c(SCC(=O)NC(=O)NC3CCCC(C)C3C)nnc12 (stereo not shown) [Compound Z17895832]
18%	C=CCNc1nc(C(=O)OCc2csc(-c3ccccc3)n2)cs1 [Compound Z17964966]
5%	C=CCNc1nc(C(=O)OCCCn2c(=O)[nH]c3ccccc32)cs1 [Compound Z17965676]
1%	COc1cc(C(=O)OC(C)C(=O)NC(C)(C#N)C(C)C)ccc1Oc1ccc(Cl)cc1[N+](=O)[O-] (stereo not shown) [Compound Z18025700]
14%	O=C(CSc1ccc2c(c1)OCCCO2)Nc1ccc2c(c1)CCC2 [Compound Z18212324]
5%	N#C/C(=C(/O)COC(=O)CCc1ccccc1)c1nc2ccccc2[nH]1 [Compound Z18264769]
26%	O=C(COC(=O)c1ccccc1OCc1ccccc1)Nc1ccc2c(c1)CCC2 [Compound Z18387854]
6%	Cc1ccccc1Nc1nc(N)nc(CSCc2ccc(Cl)cc2)n1 [Compound Z18432818]
17%	Cc1ccccc1Nc1nc(N)nc(CSc2ccccc2Cl)n1 [Compound Z18459341]
0%	Cn1nnnc1SCC(=O)c1c(-c2ccccc2)[nH]c2ccccc12 [Compound Z18519048]
5%	CC(Sc1nnnn1C)C(=O)Nc1ccc2c(c1)OCO2 (stereo not shown) [Compound Z18519758]
7%	Cc1cc(C)c(C(=O)COc2ncnc3ccccc23)cc1C [Compound Z18537178]
-1%	COc1cccc(NC(=O)COc2ncnc3ccccc23)c1 [Compound Z18537695]
6%	Cc1cc(C(=O)COc2ncnc3ccccc23)c(C)n1CC(F)(F)F [Compound Z18537891]
10%	NC(=O)c1cc(NC(=O)COC(=O)c2c3c(nc4ccccc24)/C(=C\c2ccccc2Cl)CC3)cc(C(N)=O)c1 [Compound Z18607575]
7%	CC(Sc1nc2nn(-c3ccccc3)c(=O)c-2c2n1CCCCC2)C(=O)NC(=O)NC1CCCCC1 (stereo not shown) [Compound Z18614891]
-1%	Cc1cc(C)c(C(=O)CSc2nnc(-c3c[nH]c4ccccc34)n2CC2CCCO2)c(C)c1 (stereo not shown) [Compound Z18647134]
0%	CC(Sc1nnc(-c2c[nH]c3ccccc23)n1CC1CCCO1)C(=O)Nc1ccc(N(C)C)cc1 (stereo not shown) [Compound Z18647898]
15%	O=C(CSc1nnc(-c2ccco2)o1)Nc1ccc2c(c1)CCC2 [Compound Z18650720]
54%	Cc1ccc(-n2c(SCC(=O)Nc3ccc(N4CCOCC4)cc3)nnc2-c2cccnc2)c(C)c1 [Compound Z18666705]
7%	CCOc1ccc(-n2c(SCC(=O)c3ccc[nH]3)nnc2-c2ccccc2Cl)cc1 [Compound Z18672879]
-7%	O=C(COC(=O)c1ccccc1NS(=O)(=O)c1ccc(F)cc1)NC1CCCc2ccccc21 (stereo not shown) [Compound Z18712040]

First screening IR (inhibition rate)	SMILES
43%	Cc1cc(Br)ccc1SCC(=O)OC/C(O)=C(\C#N)c1nc2ccccc2[nH]1 [Compound Z18738204]
8%	N#C/C(=C(/O)COC(=O)c1cc(F)c(F)cc1Cl)c1nc2ccccc2[nH]1 [Compound Z18771813]
-12%	COc1ccc2cc(-c3cc(C(=O)OCC(=O)Nc4cccc(C)c4)c4ccccc4n3)ccc2c1 [Compound Z18792577]
-19%	CCN(CC)S(=O)(=O)c1ccc(Cl)c(NC(=O)COC(=O)c2cc(-c3ccc4cc(OC)ccc4c3)nc3ccccc23)c1 [Compound Z18792611]
0%	O=C(OCC(=O)N1N=C(c2ccc(Cl)cc2)CC1c1ccco1)c1cc(-c2ccco2)nc2ccccc12 (stereo not shown) [Compound Z18799147]
9%	CSc1ncccc1C(=O)OCC(=O)N1N=C(c2ccc3ccccc3c2)CC1c1ccccc1 (stereo not shown) [Compound Z18838070]
2%	CCc1nc2ccccc2c(C(=O)OCC(=O)Nc2cc(C(N)=O)cc(C(N)=O)c2)c1C [Compound Z19092990]
-2%	CN(CC(=O)Nc1ccccc1Cl)C(=O)COC(=O)c1c2c(nc3ccccc13)CCC(C(C)(C)C)C2 (stereo not shown) [Compound Z19182299]
4%	Cc1ccc(NC(=O)CSc2ncnc3ccccc23)cc1F [Compound Z19314901]
0%	CC1CCC(C(C)C)C(OC(=O)CSc2ncnc3ccccc23)C1 (stereo not shown) [Compound Z19316042]
18%	N#Cc1ccc(Cl)cc1NC(=O)CSc1ncnc2ccccc12 [Compound Z19316082]
1%	Cc1ccccc1Nc1nc(N)nc(CSc2nnc(NCc3ccccc3)s2)n1 [Compound Z19326161]
7%	COc1ccc(/C=C2/CCCc3c2nc2ccccc2c3C(=O)OCC(=O)Nc2sc3c(c2C(=O)Nc2ccc(Cl)cc2)CCCC3)cc1 [Compound Z19394488]
-3%	Cc1ccccc1-n1c(SCC(=O)Nc2ccc(N3CCOCC3)cc2)nnc1-c1ccncc1 [Compound Z19446050]
4%	O=C(CSc1n[nH]c(-c2cccs2)n1)Nc1ccc(-c2ccccc2)cc1 [Compound Z19449989]
17%	CC(Sc1n[nH]c(-c2cccs2)n1)C(=O)c1c[nH]c2ccccc12 (stereo not shown) [Compound Z19450299]
2%	CC(Sc1n[nH]c(-c2cccs2)n1)c1nc2ccccc2c(=O)[nH]1 (stereo not shown) [Compound Z19451548]
13%	O=C(CSc1nnc(-c2c[nH]c3ccccc23)n1-c1ccc(Cl)cc1)N1CCNC1=O [Compound Z19511505]
-2%	COC(=O)c1c2c(nc3ccccc13)/C(=C\c1ccc3c(c1)OCO3)CCC2 [Compound Z19539846]
7%	O=C(CSc1nc2ccccc2[nH]1)NC(=O)NCc1ccccc1 [Compound Z19649872]

From PMC5607274, “An iterative compound screening contest method for identifying target protein inhibitors using the tyrosine-protein kinase Yes” (Scientific Reports, 2017)
